From ChEMBL document CHEMBL3232934, “Synthesis of thio-heterocyclic analogues from Baylis-Hillman bromides as potent cyclooxygenase-2 inhibitors” (Bioorg Med Chem Lett, 2014) come the findings set out here.

Broadly, the inhibition is the relative decrease from the control value, in per cent. Broadly, the IC50 is the midpoint of a concentration-inhibition curve.

The target of assay [1] is Prostaglandin G/H synthase 1 (Homo sapiens) (UniProt P23219). The settings on record: at 100 µM.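 Also: COX-1 enzyme inhibition, read out colorimetrically.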
Sequence of Prostaglandin G/H synthase 1 (Homo sapiens) (P23219 whole entry): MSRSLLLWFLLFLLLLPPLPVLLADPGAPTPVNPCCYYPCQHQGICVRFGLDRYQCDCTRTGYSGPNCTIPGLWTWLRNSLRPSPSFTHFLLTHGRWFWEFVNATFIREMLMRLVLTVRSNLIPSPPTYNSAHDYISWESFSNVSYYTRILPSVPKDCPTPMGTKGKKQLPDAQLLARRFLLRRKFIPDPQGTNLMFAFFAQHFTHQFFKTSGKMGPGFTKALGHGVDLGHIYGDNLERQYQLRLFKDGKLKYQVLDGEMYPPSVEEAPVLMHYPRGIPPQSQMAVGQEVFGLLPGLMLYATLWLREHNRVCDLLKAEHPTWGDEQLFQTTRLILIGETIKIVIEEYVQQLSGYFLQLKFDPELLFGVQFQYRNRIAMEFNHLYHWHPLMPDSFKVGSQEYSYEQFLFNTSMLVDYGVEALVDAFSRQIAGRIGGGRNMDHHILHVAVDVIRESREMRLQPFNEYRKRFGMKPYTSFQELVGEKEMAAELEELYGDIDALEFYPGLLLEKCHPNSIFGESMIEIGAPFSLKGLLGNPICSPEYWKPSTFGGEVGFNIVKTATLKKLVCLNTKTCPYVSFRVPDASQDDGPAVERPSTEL
Description: Inhibition of COX1 (unknown origin) at 100 uM by colorimetric method
Assay [2] deals with T1, Prostaglandin G/H synthase 2 (Homo sapiens) (UniProt P35354).
T1 sequence (whole entry): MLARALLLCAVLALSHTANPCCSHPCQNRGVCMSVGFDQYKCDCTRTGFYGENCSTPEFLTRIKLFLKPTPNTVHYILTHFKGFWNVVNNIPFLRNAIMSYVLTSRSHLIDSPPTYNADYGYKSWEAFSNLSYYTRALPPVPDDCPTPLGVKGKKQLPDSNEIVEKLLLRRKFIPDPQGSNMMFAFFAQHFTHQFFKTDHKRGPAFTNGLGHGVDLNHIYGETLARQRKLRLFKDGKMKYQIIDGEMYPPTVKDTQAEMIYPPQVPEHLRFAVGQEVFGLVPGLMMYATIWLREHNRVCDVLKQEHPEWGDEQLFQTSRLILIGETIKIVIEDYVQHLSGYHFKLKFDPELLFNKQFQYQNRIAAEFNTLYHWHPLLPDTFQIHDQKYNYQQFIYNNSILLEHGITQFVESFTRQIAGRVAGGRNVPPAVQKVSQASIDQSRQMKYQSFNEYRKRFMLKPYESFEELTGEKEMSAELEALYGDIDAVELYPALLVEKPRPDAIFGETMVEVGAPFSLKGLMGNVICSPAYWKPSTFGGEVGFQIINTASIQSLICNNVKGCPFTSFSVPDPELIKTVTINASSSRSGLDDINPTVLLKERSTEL
The settings on record: at 100 µM.
Description: Inhibition of COX2 (unknown origin) at 100 uM by colorimetric method

Assay [3] deals with T2, Prostaglandin G/H synthase 2 (Homo sapiens, UniProt P35354).
T2 sequence (P35354 whole entry): T1 sequence (whole entry)
The assay can be described thus: Inhibition of COX2 (unknown origin) by colorimetric method.

Consider `COC(=O)/C(=C/c1ccc(OC)cc1)CSc1nc2ccccc2o1`, for which the inhibition in assay [1] came out at 2%; in assay [2], 77.1%. Also, the IC50 in assay [3] was found to be 4.76 µM.
Regarding `CCOC(=O)/C(=C/c1ccc(Br)cc1)CSc1nc(C)cc(C)n1`, the inhibition worked out at 38.3% in assay [1] and 78.5% in assay [2]. This compound came in with a concentration for half-maximal inhibition (IC50) in assay [3] of 3.17 µM.
Consider `COC(=O)/C(=C/c1ccc(OC)cc1)CSc1nc(C)cc(C)n1`, for which the inhibition in assay [1] was determined as 65.3%; in assay [2], 80.2%.
On to `CCOC(=O)/C(=C/c1cccc(Cl)c1)CSc1nc2ccccc2o1`, for which the results for the inhibition in assay [1] and in assay [2] were 50% and 76.7%, respectively.
As for `COC(=O)/C(=C/c1ccc(F)cc1)CSc1nc(C)cc(C)n1`, the inhibition in assay [1] is 50.7%; in assay [2] it was 71%.
In the case of `COC(=O)/C(=C/c1ccc(C(F)(F)F)cc1)CSc1nc2ccccc2o1`, the results for the inhibition in assay [1] and in assay [2] were 39% and 81.9%, respectively. In addition, the IC50 in assay [3] was determined as 2.95 µM.
The matching figures for `CCOC(=O)/C(=C/c1cccc(F)c1)CSc1nncn1C`: 20.8%, 78.6% and 3.88 µM.
As to `CCOC(=O)/C(=C/c1cccc(Cl)c1)CSc1nc(C)cc(C)n1`, the inhibition in assay [1] is 24.4%; in assay [2], 78.6%. Besides, the IC50 in assay [3] worked out at 5.88 µM.
For the compound `COC(=O)/C(=C/c1ccc(Cl)cc1)CSc1nc(C)cc(C)n1`, the results for the inhibition in assay [1] and in assay [2] were 50.7% and 53.5%, respectively.
With `COC(=O)/C(=C/c1ccc(Cl)cc1)CSc1nc2ccccc2o1`, the inhibition is 42.7% in assay [1] and 74.8% in assay [2].
Consider `COC(=O)/C(=C/c1ccc2ccccc2c1)CSc1nc2ccccc2s1`, for which the inhibition in assay [1] is 28.8%; in assay [2] it was 75.1%. For the same compound, the 50% inhibitory concentration (IC50) in assay [3] is 2.93 µM.
`CCc1ccc(/C=C(\CSc2nncn2C)C(=O)OC)cc1`: the inhibition was 57.2% in assay [1] and 62.4% in assay [2].
Taken in the same sequence, the figures for `COC(=O)/C(=C/c1ccc(C(F)(F)F)cc1)CSc1nc2ccccc2s1` were 51.4% and 77.5%.
Taken in the same sequence, the figures for `COC(=O)/C(=C/c1ccc2ccccc2c1)CSc1nc(C)cc(C)n1` were 46.3% and 73.5%.
For the compound `CCOC(=O)/C(=C/c1ccc(Br)cc1)CSc1nc2ccccc2o1`, the inhibition in assay [1] amounted to 54.3%; in assay [2], 64.7%.
As for `COC(=O)/C(=C/c1ccc2ccccc2c1)CSc1nc2ccccc2o1`, the values for the inhibition in assay [1] and in assay [2] were 1% and 78.4%, respectively. The IC50 in assay [3] came out at 4.34 µM.
`CCOC(=O)/C(=C/c1ccc(C(C)C)cc1)CSc1nc2ccccc2o1`: the inhibition in assay [1] was determined as 47%; in assay [2] it was 81%.
In the case of `CCOC(=O)/C(=C/c1ccc(CC)cc1)CSc1nc(C)cc(C)n1`, the inhibition in assay [1] was found to be 55.1%; in assay [2], 76.5%.
The matching figures for `CCOC(=O)/C(=C/c1ccc(C(C)C)cc1)CSc1nc(C)cc(C)n1`: 44.1% and 77.4%.
Turning to `COC(=O)/C(=C/c1ccc(F)cc1)CSc1nc2ccccc2o1`, the inhibition is 47.8% in assay [1] and 72% in assay [2].
